{"source": "paper PMC12080252", "about": "“Daphnia magna as an Alternative Model for (Simultaneous) Bioaccumulation and Chronic Toxicity Assessment—Controlled Exposure Study Indicates High Hazard of Heterocyclic PAHs” (Environmental Science & Technology, 2025)", "key": {"[1]": {"tested_on": "Daphnia magna", "assay": "Chronic reproduction toxicity test (OECD 211) with passive dosing", "type": "in vivo", "conditions": "for EC10: 21-day reproduction inhibition; for % inhibition, avr.: average of vessels; for #live offspring per mother, Total: one value per vessel; for wet weight of parent daphnids, change relative to control: end of 21-d exposure", "how_it_was_run": "(§1)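 D. magna juveniles (<24 h) exposed individually 21 days by passive dosing from PDMS disks, static, 20 °C, 16:8 h light/dark, medium renewed three times weekly, fed daily; water concentrations measured initially and before renewal. Offspring per mother versus controls gave percent inhibition; EC10/EC20/EC50 from four-parameter logistic fit of log10 concentrations (Top 100, Bottom 0).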"}, "[2]": {"assay": "Chronic reproduction toxicity test (OECD 211) with passive dosing", "type": "in vivo, Daphnia magna", "conditions": "Daphnia magna, in vivo, other: waterborne exposure by passive dosing from PDMS disks, 21-day test, read-out: % offspring mortality of total offspring", "how_it_was_run": "as §1"}, "[3]": {"conditions": "DNF 0.2 µg/L (0.125 g/L methanol), 21 days"}, "[4]": {"conditions": "DNF 0.41 µg/L (0.5 g/L methanol), 21 days"}, "[5]": {"conditions": "DNF 1.24 µg/L (1 g/L methanol), 21 days"}, "[6]": {"conditions": "DNF […] (0.25 g/L methanol), 21 days"}, "[7]": {"conditions": "DNF avr. medium concentration 1.35 µg/L, conc. of methanol for dosing 1.5 g/L, 21 days, single vessels 1-6 (replicates)"}}, "note": "Values joined by “and” are separate entries in the source; they are usually repeats but may differ in a detail not shown here. Equal values may be shown once.", "data": [{"compound": "c1ccc2c(c1)ccc1oc3ccc4ccccc4c3c12", "note": "[DNF, dinaphtho[2,1-b:1′,2′-d]furan]", "values": [{"measurement": "EC10", "setting": "[1]; 97.5-2.5% confidence interval in brackets", "value": "0.14 (0.05-0.28) μg L^-1"}, {"measurement": "EC10", "setting": "[1]; confidence interval in brackets", "value": "0.52 (0.18-1.03) nmol L^-1"}, {"measurement": "growth of parent D. magna (wet weight)", "setting": "[1]; 21-day test, p-value <0.05", "value": "did not except at saturation"}, {"measurement": "LOEC (lowest observed effect concentration, reproduction inhibition)", "setting": "[1]; 21 days, p-value <0.05 vs controls", "value": 0.2, "unit": "μg L^–1"}, {"measurement": "#average live offspring", "setting": "[1]; [3]", "value": 75}, {"measurement": "%offspring mortality", "setting": "[1]; [3]", "value": 2.61, "unit": "%"}, {"measurement": "% inhibition, avr.", "setting": "[1]; [3]", "value": 12.9, "unit": "%"}, {"measurement": "#total live offspring", "setting": "[1]; DNF 0.2 µg/L (0.125 g/L methanol), 21 days, sum of all vessels", "value": 447}, {"measurement": "% inhibition (per vessel)", "setting": "[1]; DNF 0.2 µg/L (0.125 g/L methanol), live offspring vs controls, 21 days, per vessel", "value": 15.8, "unit": "%"}, {"measurement": "#average live offspring", "setting": "[1]; [4]", "value": 63}, {"measurement": "%offspring mortality", "setting": "[1]; [4]", "value": 5.09, "unit": "%"}, {"measurement": "% inhibition, avr.", "setting": "[1]; [4]", "value": 25.8, "unit": "%"}, {"measurement": "#total live offspring", "setting": "[1]; DNF 0.41 µg/L (0.5 g/L methanol), 21 days, sum of all vessels", "value": 317}, {"measurement": "mother animal mortality", "setting": "[1]; DNF 0.41 µg/L (0.5 g/L methanol), vessel 3, day 5", "value": "dead"}, {"measurement": "#average live offspring", "setting": "[1]; [5]", "value": 59}, {"measurement": "%offspring mortality", "setting": "[1]; [5]", "value": 11.81, "unit": "%"}, {"measurement": "% inhibition, avr.", "setting": "[1]; [5]", "value": 31.6, "unit": "%"}, {"measurement": "#total live offspring", "setting": "[1]; DNF 1.24 µg/L (1 g/L methanol), 21 days, sum of all vessels", "value": 351}, {"measurement": "#average live offspring", "setting": "[1]; [6]", "value": 69}, {"measurement": "%offspring mortality", "setting": "[1]; [6]", "value": 4.95, "unit": "%"}, {"measurement": "% inhibition, avr.", "setting": "[1]; [6]", "value": 19.1, "unit": "%"}, {"measurement": "#total live offspring", "setting": "[1]; DNF […] (0.25 g/L methanol), 21 days, sum of all vessels", "value": 346}, {"measurement": "mother animal mortality", "setting": "[1]; DNF […] (0.25 g/L methanol), vessel 6, day 5", "value": "dead"}, {"measurement": "#live offspring per mother, Total", "setting": "[1]; DNF avr. medium concentration 0.2 µg/L (methanol for dosing 0.125 g/L), 21 days", "value": "75 and 64 and 72 and 66 and 98"}, {"measurement": "#live offspring per mother, Total", "setting": "[1]; DNF avr. medium concentration 0.41 µg/L (methanol for dosing 0.5 g/L), 21 days", "value": "59 and 75 and 67 and 55 and 61"}, {"measurement": "#live offspring per mother, Total", "setting": "[1]; DNF avr. medium concentration 1.24 µg/L (methanol for dosing 1 g/L), 21 days", "value": "62 and 51 and 53 and 60 and 50 and 75"}, {"measurement": "%offspring mortality", "setting": "[1]; DNF avr. medium concentration 1.35 µg/L, conc. of methanol for dosing 1.5 g/L, 21 days", "value": 16.71, "unit": "%"}, {"measurement": "% inhibition, avr. (live offspring per mother)", "setting": "[1]; DNF avr. medium concentration 1.35 µg/L, conc. of methanol for dosing 1.5 g/L, 21 days, average of 6 vessels", "value": 39.8, "unit": "%"}, {"measurement": "#average live offspring", "setting": "[1]; DNF avr. medium concentration 1.35 µg/L, conc. of methanol for dosing 1.5 g/L, 21 days, mean of 6 vessels", "value": 52}, {"measurement": "#dead offspring per mother, Total (per vessel)", "setting": "[1]; [7]", "value": "9 and 12 and 16 and 5 and 8"}, {"measurement": "#live offspring per mother, Total (per vessel)", "setting": "[1]; [7]", "value": "49 and 74 and 37 and 40 and 53 and 56"}, {"measurement": "% inhibition (live offspring per mother, per vessel)", "setting": "[1]; [7]", "value": "42.7% and 13.5% and 56.7% and 53.2% and 38.0% and 34.5%"}, {"measurement": "#total live offspring", "setting": "[1]; DNF avr. medium concentration 1.35 µg/L, conc. of methanol for dosing 1.5 g/L, 21 days, sum of 6 vessels", "value": 309}, {"measurement": "EA50 (effective chemical activity)", "setting": "[1]; EC50/subcooled liquid solubility, eq 1", "value": 0.032, "unit": "unitless"}, {"measurement": "Classification according to REACH Annex XIII", "setting": "[1]; chronic EC10 < 10 μg L^–1", "value": "toxic to aquatic life"}, {"measurement": "CTLBB (critical target lipid body burden)", "setting": "[1]; derived from chronic EC10 using eq 3", "value": 3.4, "unit": "μmol g^-1 octanol"}, {"measurement": "wet weight of parent daphnids, change relative to control", "setting": "[1]; 0.18 µg/L (Fig. S9)", "value": "+1%"}, {"measurement": "wet weight of parent daphnids, change relative to control", "setting": "[1]; 0.24 µg/L (Fig. S9)", "value": -2, "unit": "%"}, {"measurement": "wet weight of parent daphnids, change relative to control", "setting": "[1]; 0.39 µg/L (Fig. S9)", "value": -6, "unit": "%"}, {"measurement": "wet weight of parent daphnids, change relative to control", "setting": "[1]; 1.16 µg/L (Fig. S9)", "value": 2, "unit": "%"}, {"measurement": "wet weight of parent daphnids, change relative to control", "setting": "[1]; 1.30 µg/L (Fig. S9)", "value": -6, "unit": "%"}, {"measurement": "wet weight of parent daphnids, change relative to control", "setting": "[1]; 1.44 µg/L (Fig. S9)", "value": -27, "unit": "%"}, {"measurement": "mortality at 21 days, 0.18 µg/L", "setting": "[2]; 0.18 µg/L (Fig. S8)", "value": 2.6, "unit": "%"}, {"measurement": "mortality at 21 days, 0.24 µg/L", "setting": "[2]; 0.24 µg/L (Fig. S8)", "value": 5, "unit": "%"}, {"measurement": "mortality at 21 days, 0.39 µg/L", "setting": "[2]; 0.39 µg/L (Fig. S8)", "value": 5.1, "unit": "%"}, {"measurement": "mortality at 21 days, 1.16 µg/L", "setting": "[2]; 1.16 µg/L (Fig. S8)", "value": 11.8, "unit": "%"}, {"measurement": "mortality at 21 days, 1.3 µg/L", "setting": "[2]; 1.30 µg/L (Fig. S8)", "value": 16.7, "unit": "%"}, {"measurement": "mortality at 21 days, 1.44 µg/L", "setting": "[2]; 1.44 µg/L (Fig. S8)", "value": 42.2, "unit": "%"}]}]}
